In patent US20100316529A1, “Anti-Microbial Systems and Methods” (priority 2001, published 2010):
Several values for one entry are separate records, joined by “and”; a condition that tells them apart may be missing. Equal values may be shown once.

What was measured:
Assay in all cases: EDTA salt dilution test, MIC/MBC
Format in all cases: cell-based
[1] = test system: Kleb. pnemoniae; conditions: two entries; for MBC, minimum concentration required to kill an entire population: Exhibit A1; for MIC, minimum concentration required to inhibit growth: Exhibit A2
Protocol: (§1) Protocol one: Broth dilutions:
(§2) Inoculate a 25 ml nutrient broth (Oxoid No2) in a sterile universal container with one of the following organisms; Pseudomonas aeruginosa, Proteus Mirabilis, E. coli, Klebsiella pneumoniae, Staph aureus, Coagulase negative staphylococci, Enterococcus faecalis or MRSA.
(§3) Incubate the broth at 37° C. overnight.
(§4) To make these concentrations put the EDTA needed for 10 mLs in only 9 mLs of broth in sterile universal containers, as this will be diluted further when the organisms are added.
(§5) Dilute the overnight broth cultures to 10^7 organisms/mL using more sterile nutrient broth.
(§6) Add 1 mL of this diluent to each of the EDTA series broths. This gives a final concentration of 10^6 organism/mL in the EDTA broths.
(§7) Incubate for 18 hours at 37° C.
(§8) Next day visually read the MIC's by observing the turbidity of the broths.
(§9) Plate out 1 uL of each dilution onto fresh blood agar plate and spread using a sterile plastic spreader.
(§10) Incubate overnight at 37° C.
(§11) Next day read the MBC's by performing colony counts.

[2] = test system: S. capitis; conditions: two entries; for MBC, minimum concentration required to kill an entire population: Exhibit A1; for MIC, minimum concentration required to inhibit growth: Exhibit A2
Protocol: as §1, §2, §3, §4, §5, §6, §7, §8, §9, §10, §11

[3] = test system: Proteus mirabilis; conditions: two entries; for MBC, minimum concentration required to kill an entire population: Exhibit A1; for MIC, minimum concentration required to inhibit growth: Exhibit A2
Protocol: as §1, §2, §3, §4, §5, §6, §7, §8, §9, §10, §11

[4] = test system: MRSA; conditions: five entries; for MBC, minimum concentration required to kill an entire population: Exhibit A1; for MIC, minimum concentration required to inhibit growth: Exhibit A2
Protocol: as §1, §2, §3, §4, §5, §6, §7, §8, §9, §10, §11

[5] = test system: S. simulans; conditions: for MBC, minimum concentration required to kill an entire population: Exhibit A1; for MIC, minimum concentration required to inhibit growth: Exhibit A2
Protocol: as §1, §2, §3, §4, §5, §6, §7, §8, §9, §10, §11

[6] = test system: S. epidermidis; conditions: two entries; for MBC, minimum concentration required to kill an entire population: Exhibit A1; for MIC, minimum concentration required to inhibit growth: Exhibit A2
Protocol: as §1, §2, §3, §4, §5, §6, §7, §8, §9, §10, §11

[7] = test system: E. coli; conditions: three entries; for MBC, minimum concentration required to kill an entire population: Exhibit A1; for MIC, minimum concentration required to inhibit growth: Exhibit A2
Protocol: as §1, §2, §3, §4, §5, §6, §7, §8, §9, §10, §11

[8] = test system: S. lentus; conditions: for MBC, minimum concentration required to kill an entire population: Exhibit A1; for MIC, minimum concentration required to inhibit growth: Exhibit A2
Protocol: as §1, §2, §3, §4, §5, §6, §7, §8, §9, §10, §11

[9] = test system: Ent. faecalis; conditions: for MBC, minimum concentration required to kill an entire population: Exhibit A1; for MIC, minimum concentration required to inhibit growth: Exhibit A2
Protocol: as §1, §2, §3, §4, §5, §6, §7, §8, §9, §10, §11

[10] = test system: Pseudomonas aeruginosa; conditions: two entries; for MBC, minimum concentration required to kill an entire population: Exhibit A1; for MIC, minimum concentration required to inhibit growth: Exhibit A2
Protocol: as §1, §2, §3, §4, §5, §6, §7, §8, §9, §10, §11

[11] = test system: S. aureus; conditions: five entries; for MBC, minimum concentration required to kill an entire population: Exhibit A1; for MIC, minimum concentration required to inhibit growth: Exhibit A2
Protocol: as §1, §2, §3, §4, §5, §6, §7, §8, §9, §10, §11

[12] = test system: S. xylosus; conditions: for MBC, minimum concentration required to kill an entire population: Exhibit A1; for MIC, minimum concentration required to inhibit growth: Exhibit A2
Protocol: as §1, §2, §3, §4, §5, §6, §7, §8, §9, §10, §11

[13] = test system: Pseudomonas sp.; conditions: for MBC, minimum concentration required to kill an entire population: Exhibit A1; for MIC, minimum concentration required to inhibit growth: Exhibit A2
Protocol: as §1, §2, §3, §4, §5, §6, §7, §8, §9, §10, §11

[14] = test system: Kleb. ornitholytica; conditions: for MBC, minimum concentration required to kill an entire population: Exhibit A1; for MIC, minimum concentration required to inhibit growth: Exhibit A2
[15] = test system: Kleb. oxytoca; conditions: for MBC, minimum concentration required to kill an entire population: Exhibit A1; for MIC, minimum concentration required to inhibit growth: Exhibit A2
[16] = test system: Cornyeform amycolatum; conditions: for MBC, minimum concentration required to kill an entire population: Exhibit A1; for MIC, minimum concentration required to inhibit growth: Exhibit A2
[17] = test system: Proteus vulgaris; conditions: for MBC, minimum concentration required to kill an entire population: Exhibit A1; for MIC, minimum concentration required to inhibit growth: Exhibit A2
[18] = test system: Ent. faeculm; conditions: for MIC, minimum concentration required to inhibit growth: Ent. faecuim, Exhibit A2; for MBC, minimum concentration required to kill an entire population: Ent. faeculm, Exhibit A1
[19] = test system: Coryneform strait/amy; conditions: for MBC, minimum concentration required to kill an entire population: Exhibit A1; for MIC, minimum concentration required to inhibit growth: Exhibit A2
[20] = test system: Steno. maltophilia; conditions: for MBC, minimum concentration required to kill an entire population: Exhibit A1; for MIC, minimum concentration required to inhibit growth: Exhibit A2
[21] = test system: VRE; conditions: two entries; for MBC, minimum concentration required to kill an entire population: Exhibit A1
Protocol: as §1, §2, §3, §4, §5, §6, §7, §8, §9, §10, §11

[22] = test system: Acinetobacter baumanii; conditions: two entries, Exhibit A1
[23] = test system: Ent. cloacae; conditions: three entries; for MBC, minimum concentration required to kill an entire population: Exhibit A1; for MIC, minimum concentration required to inhibit growth: Exhibit A2

O=C([O-])CN(CCN(CC(=O)[O-])CC(=O)[O-])CC(=O)[O-].[Cu+2].[Na+].[Na+] [Cupric disodium EDTA]
<0.5 mg/mL: MBC, minimum concentration required to kill an entire population [2] | MIC, minimum concentration required to inhibit growth [2] | MBC, minimum concentration required to kill an entire population [4] | MIC, minimum concentration required to inhibit growth [4] | MBC, minimum concentration required to kill an entire population [5] | MIC, minimum concentration required to inhibit growth [5] | MBC, minimum concentration required to kill an entire population [6] | MIC, minimum concentration required to inhibit growth [6] | MBC, minimum concentration required to kill an entire population [8] | MIC, minimum concentration required to inhibit growth [8] | MBC, minimum concentration required to kill an entire population [9] | MIC, minimum concentration required to inhibit growth [9] | MBC, minimum concentration required to kill an entire population [11] | MIC, minimum concentration required to inhibit growth [11] | MBC, minimum concentration required to kill an entire population [12] | MIC, minimum concentration required to inhibit growth [12] | MBC, minimum concentration required to kill an entire population [16] | MIC, minimum concentration required to inhibit growth [18] | MBC, minimum concentration required to kill an entire population [18] | MBC, minimum concentration required to kill an entire population [19] | MIC, minimum concentration required to inhibit growth [19]
6 mg/mL: MIC, minimum concentration required to inhibit growth [3] | MIC, minimum concentration required to inhibit growth [20]
>30 mg/mL: MBC, minimum concentration required to kill an entire population [1] | MIC, minimum concentration required to inhibit growth [1] | MBC, minimum concentration required to kill an entire population [3] | MBC, minimum concentration required to kill an entire population [7] | MBC, minimum concentration required to kill an entire population [10] | MIC, minimum concentration required to inhibit growth [10] | MBC, minimum concentration required to kill an entire population [13] | MIC, minimum concentration required to inhibit growth [13] | MBC, minimum concentration required to kill an entire population [14] | MIC, minimum concentration required to inhibit growth [14] | MBC, minimum concentration required to kill an entire population [15] | MIC, minimum concentration required to inhibit growth [15] | MBC, minimum concentration required to kill an entire population [17] | MIC, minimum concentration required to inhibit growth [17] | MBC, minimum concentration required to kill an entire population [20]

O=C([O-])CN(CCN(CC(=O)[O-])CC(=O)[O-])CC(=O)[O-].[Fe+3].[Na+] [Ferric-sodium salt EDTA]
>20 mg/mL: MIC, minimum concentration required to inhibit growth [2] | MIC, minimum concentration required to inhibit growth [4] | MIC, minimum concentration required to inhibit growth [5] | MIC, minimum concentration required to inhibit growth [6] | MIC, minimum concentration required to inhibit growth [8] | MIC, minimum concentration required to inhibit growth [11] | MIC, minimum concentration required to inhibit growth [12]
15 mg/mL: MIC, minimum concentration required to inhibit growth [10] | MIC, minimum concentration required to inhibit growth [13] | MIC, minimum concentration required to inhibit growth [14]
10 mg/mL and >15 mg/mL: MBC, minimum concentration required to kill an entire population [22]
15 mg/mL and >15 mg/mL: MIC, minimum concentration required to inhibit growth [7]
4 mg/mL: MIC, minimum concentration required to inhibit growth [9] | MIC, minimum concentration required to inhibit growth [18]
10 mg/mL: MBC, minimum concentration required to kill an entire population [16] | MIC, minimum concentration required to inhibit growth [16] | MBC, minimum concentration required to kill an entire population [19] | MIC, minimum concentration required to inhibit growth [19] | MIC, minimum concentration required to inhibit growth [20]
>15 mg/mL and 15 mg/mL: MIC, minimum concentration required to inhibit growth [1]
>15 mg/mL: MBC, minimum concentration required to kill an entire population [1] | MBC, minimum concentration required to kill an entire population [3] | MIC, minimum concentration required to inhibit growth [3] | MBC, minimum concentration required to kill an entire population [7] | MBC, minimum concentration required to kill an entire population [10] | MBC, minimum concentration required to kill an entire population [13] | MBC, minimum concentration required to kill an entire population [14] | MBC, minimum concentration required to kill an entire population [15] | MIC, minimum concentration required to inhibit growth [15] | MBC, minimum concentration required to kill an entire population [17] | MIC, minimum concentration required to inhibit growth [17] | MBC, minimum concentration required to kill an entire population [23] | MIC, minimum concentration required to inhibit growth [23] | MBC, minimum concentration required to kill an entire population [20]
>30 mg/mL: MBC, minimum concentration required to kill an entire population [2] | MBC, minimum concentration required to kill an entire population [4] | MBC, minimum concentration required to kill an entire population [5] | MBC, minimum concentration required to kill an entire population [21] | MBC, minimum concentration required to kill an entire population [6] | MBC, minimum concentration required to kill an entire population [8] | MBC, minimum concentration required to kill an entire population [9] | MBC, minimum concentration required to kill an entire population [11] | MBC, minimum concentration required to kill an entire population [12] | MBC, minimum concentration required to kill an entire population [18]

O=C([O-])CN(CCN(CC(=O)[O-])CC(=O)[O-])CC(=O)[O-].[Mg+2].[Na+].[Na+] [Magnesium disodium EDTA]
>30 mg/mL: MBC, minimum concentration required to kill an entire population [1] | MIC, minimum concentration required to inhibit growth [1] | MBC, minimum concentration required to kill an entire population [2] | MBC, minimum concentration required to kill an entire population [3] | MIC, minimum concentration required to inhibit growth [3] | MBC, minimum concentration required to kill an entire population [4] | MIC, minimum concentration required to inhibit growth [4] | MBC, minimum concentration required to kill an entire population [5] | MBC, minimum concentration required to kill an entire population [21] | MBC, minimum concentration required to kill an entire population [7] | MIC, minimum concentration required to inhibit growth [7] | MBC, minimum concentration required to kill an entire population [8] | MBC, minimum concentration required to kill an entire population [9] | MIC, minimum concentration required to inhibit growth [9] | MBC, minimum concentration required to kill an entire population [10] | MIC, minimum concentration required to inhibit growth [10] | MBC, minimum concentration required to kill an entire population [11] | MIC, minimum concentration required to inhibit growth [11] | MBC, minimum concentration required to kill an entire population [12] | MBC, minimum concentration required to kill an entire population [13] | MIC, minimum concentration required to inhibit growth [13] | MBC, minimum concentration required to kill an entire population [14] | MIC, minimum concentration required to inhibit growth [14] | MBC, minimum concentration required to kill an entire population [15] | MIC, minimum concentration required to inhibit growth [15] | MIC, minimum concentration required to inhibit growth [17] | MBC, minimum concentration required to kill an entire population [18] | MBC, minimum concentration required to kill an entire population [23] | MIC, minimum concentration required to inhibit growth [23] | MBC, minimum concentration required to kill an entire population [20] | MIC, minimum concentration required to inhibit growth [20]
30 mg/mL: MBC, minimum concentration required to kill an entire population [6]
1.5 mg/mL: MIC, minimum concentration required to inhibit growth [5] | MIC, minimum concentration required to inhibit growth [18]
25 mg/mL and >30 mg/mL: MIC, minimum concentration required to inhibit growth ([21]; Exhibit A2)
2 mg/mL: MIC, minimum concentration required to inhibit growth [12]
<0.5 mg/mL: MIC, minimum concentration required to inhibit growth [16] | MIC, minimum concentration required to inhibit growth [19]
.30 mg/mL: MBC, minimum concentration required to kill an entire population [17]
6 mg/mL: MIC, minimum concentration required to inhibit growth [6] | MIC, minimum concentration required to inhibit growth [8]
4 mg/mL: MBC, minimum concentration required to kill an entire population [16] | MBC, minimum concentration required to kill an entire population [19]
